Patent US20190374506A1, “COMPOSITIONS AND METHODS FOR TREATING CANCER” (BETH ISREAL DEACONESS MEDICAL CENTER, priority 2016, published 2019)

Tests used:
Type in all cases: cell-based, human
[1] = test system: DU145 cells stably expressing MYC or vector control; assay: Growth curves, MTT assay, DU145 cells stably expressing MYC or vector control
[2] = test system: DU145 cells; assay: Growth curves, colorimetric MTT assay, DU145 cells; details: various doses of I3C for 5 Days
Excerpt: FIG. 11C provides growth curves of DU145 (PTEN competent) or PC3 cells (PTEN null) treated with various doses of I3C for 5 Days, and then assayed with colorimetric MTT assay (three experiments). Whether targeting WWP1/NEDD4-1, thereby enhancing PTEN dimerization and function, could offer a unique opportunity to treat MYC-driven cancers was investigated. […] As there is no small pharmacological inhibitor currently available to suppress/inhibit WWP1 activity, Indole-3-Carbinol (I3C), a potential WWP1 inhibitor, which suppresses the WWP1 activity through binding to its HECT domain, was used. First, to assess the on-target effects of I3C towards WWP1, Wwp1^−/− MEFs were used. […] Additionally, two independent PTEN stably knocked-down cells were generated.

[3] = test system: WWP1/NEDD4-1 E3 mediated PTEN K27-linked poly-ubiquitination; assay: In vivo ubiquitination assay (Ni-NTA pull down, western blot) in DU145 cells; details: 10 μM or 20 μM I3C for 4 Days
Protocol: DU145 cells expressing indicated plasmids were treated with 10 μM or 20 μM of I3C for 4 Days. The ubiquitinated PTEN was pulled down under denaturing conditions by Ni-NTA agarose and analysed by the western blot. Whether targeting WWP1/NEDD4-1, thereby enhancing PTEN dimerization and function, could offer a unique opportunity to treat MYC-driven cancers was investigated. […] As there is no small pharmacological inhibitor currently available to suppress/inhibit WWP1 activity, Indole-3-Carbinol (I3C), a potential WWP1 inhibitor, which suppresses the WWP1 activity through binding to its HECT domain, was used. First, to assess the on-target effects of I3C towards WWP1, Wwp1^−/− MEFs were used. […] Additionally, two independent PTEN stably knocked-down cells were generated. […] To analyse in vivo ubiquitination of PTEN, cells were transfected with various constructs, together with His-Ubiquitin and Myc-PTEN. Cells were lysed by buffer A (6 M guanidine-HCl, Na2HPO4/NaH2PO4 [pH 8.0], and 10 mM imidazole), and lysates were incubated with Ni-NTA agarose for 1.5 hours at 4° C. The beads were washed once with buffer A, twice with buffer ANTI (1 vol buffer A: 3 vol buffer TI [25 mM Tris-HCl, pH 6.8, and 20 mM imidazole]), and three times with buffer TI, and then analysed by western blot. In all experiments, an equal amount of His-Ubiquitin expression was verified by western blot analysis.

[4] = test system: PTEN/AKT pathway in DU145 cells (PTEN competent); assay: Western blot analysis of PTEN/AKT pathway in DU145 cells; details: different doses of I3C for 3 Days
Protocol: FIG. 11B provides an analysis of effects of I3C on PTEN/AKT pathway in DU145 or PC3 cells by western blot analysis. Cells were treated with different doses of I3C for 3 Days, and followed by western blot analysis. Whether targeting WWP1/NEDD4-1, thereby enhancing PTEN dimerization and function, could offer a unique opportunity to treat MYC-driven cancers was investigated. […] As there is no small pharmacological inhibitor currently available to suppress/inhibit WWP1 activity, Indole-3-Carbinol (I3C), a potential WWP1 inhibitor, which suppresses the WWP1 activity through binding to its HECT domain, was used. First, to assess the on-target effects of I3C towards WWP1, Wwp1^−/− MEFs were used. […] Additionally, two independent PTEN stably knocked-down cells were generated. […] Western Blotting and Immunoprecipitation. For western blotting, cells were lysed in RIPA buffer (Boston BioProducts) supplemented with protease (Roche) and phosphatase (Roche) inhibitor. Proteins were separated on NuPAGE 4-12% Bis-Tris gradient gels (Invitrogen), transferred to polyvinylidine difluoride membranes (Immobilon P, Millipore) and the blots were probed with the indicated antibodies. For immunoprecipitation, PC3, 293T and MEF cells were transfected with the indicated expression vectors by using LIPOFECTAMIN 2000 (Life Technologies). 24 hours after transfection, cells were lysed in RIPA buffer with protease (Roche) and phosphatase (Roche) inhibitor. 500 μg of total lysates were pre-cleared for 30 minutes at 4° C., and then immunoprecipitated with anti-Myc (Cell Signaling Technology 9B11, 1:500), or anti-PTEN (Cell Signaling Technology 9559, 1:500) antibody overnight at 4° C. The Protein-A or Protein-G sepharose beads (GE Healthcare) were then added and incubated for another 2 hours. The immunoprecipitates were washed with RIPA buffer three times. In denaturing conditions, standard Laemmli-Buffer with 5% final concentration of β-mercaptoethanol was added to the samples, which were then boiled and separated on NuPAGE 4-12% Bis-Tris gradient gels (Invitrogen). […]

## OCc1c[nH]c2ccccc12 [I3C, indole-3-carbinol]
[1]; MYC-overexpressing DU145 cells, same low dose of I3C
  cell growth upon overexpression of MYC: became sensitized
[1]; vector control DU145 cells, low dose of I3C
  cell growth of control cells: little effect on the cell growth
[2]
  cell growth: drastic inhibition of cell growth
[3]
  PTEN K27-linked poly-ubiquitination: robustly diminished
[4]
  AKT activation: dose-dependent AKT suppression
  PTEN protein level: without affecting PTEN protein level
  apoptosis: concomitant induction of apoptosis
